From PMC3515450, “Mechanistic and Structural Understanding of Uncompetitive Inhibitors of Caspase-6” (PLoS ONE, 2012)
Like-named read-outs stand apart in the source and are kept apart here.

Molecular target: T1, caspase-6 (Homo sapiens, UniProt P55212)
T1 construct: Residues 24-179 and 194-293 from caspase-6 cDNA (Origene) were cloned into pET-24b and pET-23b vectors; 6x histidine tag (C); made in house; host or cells: E. coli BL21 (DE3) pLysS
T1 sequence (P55212 24-179): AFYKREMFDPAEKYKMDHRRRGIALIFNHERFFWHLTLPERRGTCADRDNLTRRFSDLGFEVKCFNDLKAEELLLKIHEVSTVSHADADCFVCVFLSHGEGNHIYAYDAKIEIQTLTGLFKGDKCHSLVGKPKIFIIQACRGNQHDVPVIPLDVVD
T1 sequence (P55212 194-293): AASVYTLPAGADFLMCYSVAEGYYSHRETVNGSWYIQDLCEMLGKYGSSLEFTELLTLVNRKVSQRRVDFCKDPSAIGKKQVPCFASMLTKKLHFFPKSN
Experiment: Caspase-6 enzymatic assay with fluorogenic tetrapeptide substrates
Type: biochemical
Experimental: The in vitro enzymatic caspase assays utilize synthetic tetrapeptide substrates labeled with the fluorophores Rhodamine110 (R110) or 7-amino-4-methylcoumarin (AMC) at the P1 aspartic acid (Asp) residue. All assays were performed in 384-well plates in 12 µL reaction volume consisting of enzyme, substrate and indicated concentration of inhibitor or DMSO in assay buffer (50 mM HEPES [pH 7.0], 25 mM MgSO4, 0.5 mM EGTA, 5 mM Glutathione (GSH), 0.01% Triton X-100 containing 0.1% Bovine Gamma Globulin (BGG)). All inhibitors were serially diluted in 100% DMSO prior to dilution in assay buffer and transfer to assay plate. DMSO was diluted into assay buffer similarly for blank wells (no enzyme or compound) and final DMSO concentration was 1%. The concentration of caspase-6 used in enzymatic reactions typically varied between 1–10 nM depending on substrate used. Unless otherwise indicated, substrate concentration was within 3-fold of the determined Kmapparent (5 µM (Ac-VEID)2R110 [Kmapp = 8 µM]; 5 µM (Ac-DEVD)2R110 [Kmapp = 8 µM]; 25 µM (Ac-IETD)2R110 [Kmapp = 70 µM]; 25 µM (Ac-WEHD)2R110 [Kmapp = 70 µM]; 10µM Ac-VEID-AMC [Kmapp = 16µM]; 5 µM Ac-VEID-R110 [Kmapp = 8 µM]). The concentration of substrate utilized in selectivity assays for each caspase isoform was also held as close to Kmapparent as reasonably achievable (Table S1). Caspases-3 and -7 were expressed and purified at Genentech as the catalytic domain consisting of large p20 and small p10 subunits without prodomain. For all caspase enzymatic assays, the reaction plate was incubated at room temperature for 40 minutes and then read on Envision (Perkin Elmer) fluorescent plate reader at excitation/emission wavelengths of 485/535 nm (R110) or 350/450 nm (AMC). […]
The endpoint fluorescent emission (RFU) in each well was plotted as a function of inhibitor concentration and the 50% inhibition (IC50) values were determined using a nonlinear least squares fit of the data to a four parameter equation using Prism 5.0 software (GraphPad Software, San Diego, CA). […] Ki values for Compound 3 were calculated using this equation: Ki = IC50/(Km/[S] +1). Concentration-response curves for each inhibitor were normalized to zero and 100% based on no enzyme or DMSO control, respectively. For steady-state kinetic analysis, initial reaction velocity (RFU/minute) was plotted against substrate concentration at each inhibitor concentration and the data was fit to a hyperbolic Michaelis-Menten model using Prism 5.0 software. Km (µM) and Vmax (RFU/minute) were calculated by using this equation: v = Vmax • [S]/Km+[S] where v = initial reaction velocity at indicated substrate concentration (S). Vmax values were normalized to zero and 100% based on no enzyme or DMSO control, respectively.
Expression and purification of caspase-6 for enzymatic assays: Human caspase-6 was expressed as the mature enzyme using a split construct. Residues 24-179 and 194-293 from caspase-6 cDNA (Origene) were cloned into pET-24b and pET-23b vectors (Novagen) respectively; the small subunit contained a C-terminal 6x histidine tag. Vectors were cotransfected into the E.coli strain BL21 (DE3) pLysS (Stratagene). Cells were grown from a single colony in 6L of 2xYT supplemented with ampicillin and kanamycin at 37 °C to an OD of ~ 0.5 and were subsequently cooled to 16 °C before overnight induction with 0.2 mM IPTG. Cells were harvested by centrifugation, resuspended in 100 mM NaCl, 100 mM Tris, pH 8.0, and lysed.

Ki ((VEID)2R110 substrate, calculated from IC50): 4 nM
fold weaker with (DEVD)2R110 than with (VEID)2R110 substrate (caspase-6): ~44 fold
IC50 (caspase-6, (DEVD)2R110 substrate, read-out: IC50): 481 nM
IC50 (caspase-6, (IETD)2R110 substrate, read-out: inhibition of (IETD)2R110 cleavage): ~100000 nM
binding efficiency index (BEI; pIC50/molecular weight) (caspase-6, (VEID)2R110): 19.7
IC50 (caspase-6, (WEHD)2R110 substrate, not inhibited up to this concentration, read-out: inhibition of (WEHD)2R110 cleavage): > 100000 nM
IC50 (caspase-6, monovalent VEID-AMC substrate, read-out: IC50): 14000 nM
IC50 (caspase-6 cleavage of (VEID)2R110 substrate, read-out: IC50 (potency)): 11 nM
selectivity for caspase-6 cleavage of (VEID)2R110 compared to other caspase family members tested (versus caspases-3 and -7): near absolute selectivity
SMILES: COc1ccc(-c2cc(C(=O)N[C@@H](CO)Cc3cccc(C#N)c3)co2)cc1OC [Compound 3]
